Laboratory results as given in patent US20140377189A1, “PULMONARY ADMINISTRATION OF ROTIGOTINE” (MAP Pharmaceuticals, Inc., priority 2013, published 2014).

Assay: In situ rotigotine salt screening (precipitate formation in ethanol/HFA 227 solution formulation)
Type: physicochemical
Settings: 10% (w/w) ethanol in HFA 227; for Observation Immediate / Observation 1 week at 5° C. / Observation 1 week at RT: 1 mg/mL rotigotine free base with acid; for Observation Immediate: immediately upon preparation; for Observation 1 week at 5° C.: another week at 5° C. after 1 week at RT; for Observation 1 week at RT: stored 1 week at room temperature
Procedure: Rotigotine, bulk drug substance, was purchased from Chemagis (Perrigo API). A stock solution of rotigotine was prepared by dissolving rotigotine particles in ethanol at 10 mg/mL. With 1.5 mL rotigotine stock solution added to formulation bottles, each formulation bottle contained 15 mg rotigotine. For preparation of acid stock solutions, it was assumed that complete reaction or ion-pairing between rotigotine and acid. Based on the molecular weight and number of anions of each acid as listed in Table 1, acids stock solutions were prepared by dissolving the required amount in ethanol.
Each formulation bottle was filed with 1.5 mL of rotigotine stock solution and 1.0 ml, of acid stock solution. The formulation bottles (PET bottles) were then sealed with continuous valves and vortexed for 30 seconds to mix the solution well. Finally, 17.6 g of 1,1,1,2,3,3,3-heptafluoropropane (HFA227 (Mexichem)) to make a final volume of 15 mL of rotigotine formulation. All the bottles were hand shaken for 10 seconds.
All in situ salt screening samples were made as 1 mg/mL of rotigtine free base in 10% (w/w) ethanol in HFA 227. Acids corresponding to the salt forms in Table 1 were added according to the molar ratio with rotigotine for complete reaction. As 1 mg/mL was the minimal required dose at the time of experiment, all formulations were tested at this level to screen out non-solution salt formulations.
These were the rotigotine citrate, fumarate, succinate, sulfate, tartrate, xinafoate salt formulations. […] rotigotine salt formulations were immediately ruled out as the precipitate formation was not desired. All clear solution samples were stored at room temperature (RT) for 1 week. […] These were rotigotine acetate, benzoate and mesylate salt formulations. These 3 rotigotine salt formulations were also ruled out as precipitate formation is not desired. The rest of the samples remained as clear solutions (stable) at after another week at 5° C.
Out of the 7 acids that remained a clear solution after 1 week of storage, rotigotine maleate was selected as the lead candidate and suitable as a stable solution for oral pulmonary aerosol delivery.

Row | Molecule | Observation Immediate | Observation 1 week at 5° C. | Observation 1 week at RT | stayed in solution formulation at the minimum required concentration (minimum required concentration 1 mg/mL)
1 | Fumarate | white precipitate | – | – | –
2 | rotigotine pamoate | solution | solution | solution | –
3 | rotigotine glycolate | solution | solution | solution | –
4 | CC(=O)O.CCCN(CCc1cccs1)[C@H]1CCc2c(O)cccc2C1 [Acetate, rotigotine acetate] | solution | – | red precipitate | –
5 | rotigotine citrate | white precipitate | – | – | –
6 | rotigotine maleate | solution | solution | solution | stayed in solution
7 | rotigotine palmitate | solution | solution | solution | –
8 | rotigotine stearate | solution | solution | solution | –
9 | O=S(=O)(O)O [Sulfate] | white precipitate | – | – | –
10 | rotigotine propionate | solution | solution | solution | –
11 | Benzoate | solution | – | red precipitate | –
12 | CC(O)C(=O)O.CCCN(CCc1cccs1)[C@H]1CCc2c(O)cccc2C1 [Lactate, rotigotine lactate] | solution | solution | solution | –
13 | Tartrate | white precipitate | – | – | –
